In patent US10294202B2, “Pyrrolidinones as herbicides” (FMC Corporation, priority 2013, dated 2019):

Assays:
crabgrass, Brazil = assay: Test E preemergence herbicide test; format: in vivo, Digitaria horizontalis; design: key: 0 = no effect, 100 = complete control
Source text: (§1) Seeds of plant species selected from corn (Zea mays), soybean (Glycine max), velvetleaf (Abutilon theophrasti), lambsquarters (Chenopodium album), wild poinsettia (Euphorbia heterophylla), pigweed, palmer (palmer pigweed, Amaranthus palmeri), waterhemp (common waterhemp, Amaranthus rudis), surinam grass (Brachiaria decumbens), crabgrass, large (large crabgrass, Digitaria sanguinalis), crabgrass, Brazil (Brazilian crabgrass, Digitaria horizontalis), panicum, fall (fall panicum, Panicum dichotomiflorum), foxtail, giant (giant foxtail, Setaria faberii), foxtail, green (green foxtail, Setaria viridis), goosegrass (Eleusine indica), johnsongrass (Sorghum halepense), ragweed (common ragweed, Ambrosia elatior), barnyardgrass (Echinochloa crus-galli), sandbur (southern sandbur, Cenchrus echinatus), arrowleaf […] rhombifolia), ryegrass, Italian (Italian ryegrass, Lolium multiflorum), dayflower, VA (Virginia dayflower, Commelina virginica), field bindweed (Convolvulus arvensis), morningglory (Ipomoea coccinea), nightshade (eastern black nightshade, Solanum ptycanthum), kochia (Kochia scoparia), nutsedge, yellow (yellow nutsedge, Cyperus esculentus), cocklebur (common cocklebur, Xanthium strumarium), smartweed (ladysthumb smartweed, Polygonum Persicaria) and beggarticks (hairy beggarticks, Bidens pilosa), were planted into a silt loam soil and treated preemergence with test chemicals formulated in a non-phytotoxic solvent mixture which included a surfactant. Treated plants and controls were maintained in a greenhouse for 21 days, after which time all species were compared to controls and visually evaluated. Plant response ratings, summarized in Table E, are based on a scale of 0 to 100 where 0 is no effect and 100 is complete control. A dash (-) response means no test result.

beggarticks = assay: Test E preemergence herbicide test; format: in vivo, Bidens pilosa; design: key: 0 = no effect, 100 = complete control
Source text: as §1

ragweed = assay: Test E preemergence herbicide test; format: in vivo, Ambrosia elatior; design: key: 0 = no effect, 100 = complete control
Source text: as §1

goosegrass = assay: Test E preemergence herbicide test; format: in vivo, Eleusine indica; design: key: 0 = no effect, 100 = complete control
Source text: as §1

morningglory = assay: Test E preemergence herbicide test; format: in vivo, Ipomoea coccinea; design: key: 0 = no effect, 100 = complete control
Source text: as §1

field bindweed = assay: Test E preemergence herbicide test; format: in vivo, Convolvulus arvensis; design: key: 0 = no effect, 100 = complete control
Source text: as §1

deadnettle = assay: Test D pre-/postemergence herbicide test; format: in vivo, Lamium amplexicaule; conditions: for Plant response rating: Deadnettle, scale 0 to 100; for Plant response rating, Deadnettle: scale 0 to 100 (0 no effect, 100 complete control)
Source text: Seeds of plant species selected from bluegrass (annual bluegrass, Poa annua), blackgrass (Alopecurus myosuroides), canarygrass (littleseed canarygrass, Phalaris minor), chickweed (common chickweed, Stellaria media), galium (catchweed bedstraw, Galium aparine), bromegrass, downy (downy bromegrass, Bromus tectorum), field poppy (Papaver rhoeas), field violet (Viola arvensis), foxtail, green (green foxtail, Setaria viridis), deadnettle (henbit deadnettle, Lamium amplexicaule), ryegrass, Italian (Italian ryegrass, Lolium multiflorum), kochia (Kochia scoparia), lambsquarters (Chenopodium album), oilseed rape (Brassica napus), pigweed (Amaranthus retroflexus), chamomile (scentless chamomile, Matricaria inodora), Russian thistle (Salsola kali), speedwell (bird's-eye speedwell, Veronica persica), barley, spring (spring barley, Hordeum vulgare), wheat, spring (spring wheat, Triticum aestivum), buckwheat, wild (wild buckwheat, Polygonum convolvulus), mustard, wild (wild mustard, Sinapis arvensis), oat, wild (wild oat, Avena fatua), radish, wild (wild radish, Raphanus raphanistrum), […]), barley, winter (winter barley, Hordeum vulgare), and wheat, winter (winter wheat, Triticum aestivum) were planted into a silt loam soil and treated preemergence with test chemicals formulated in a non-phytotoxic solvent mixture which included a surfactant. At the same time, these species were planted in pots containing Redi-Earth® planting medium (Scotts Company, 14111 Scottslawn Road, Marysville, Ohio 43041) comprising spaghnum peat moss, vermiculite, wetting agent and starter nutrients and treated with postemergence applications of the test chemicals formulated in the same manner. Plants ranged in height from 2 to 18 cm (1- to 4-leaf stage). Treated plants and controls were maintained in a controlled growth environment for 7 to 21 days after which time all species were compared to controls and visually evaluated. Plant response ratings, summarized in Table D, are based on a scale of 0 to 100 where 0 is no effect and 100 is complete control. A dash (-) response means no test result.

Row | Compound | Plant response rating, Crabgrass, Brazil (crabgrass, Brazil; 31 g ai/ha) | Plant response rating, Crabgrass, Brazil (crabgrass, Brazil; 62 g ai/ha) | Plant response rating, Crabgrass, Brazil (crabgrass, Brazil; 125 g ai/ha) | Plant response rating, Crabgrass, Brazil (crabgrass, Brazil; 250 g ai/ha) | Plant response rating, Beggarticks (beggarticks; 31 g ai/ha) | Plant response rating, Beggarticks (beggarticks; 62 g ai/ha) | Plant response rating, Beggarticks (beggarticks; 125 g ai/ha) | Plant response rating, Beggarticks (beggarticks; 250 g ai/ha) | Plant response rating, Ragweed (ragweed; 31 g ai/ha) | Plant response rating, Ragweed (ragweed; 62 g ai/ha) | Plant response rating, Ragweed (ragweed; 125 g ai/ha) | Plant response rating, Ragweed (ragweed; 250 g ai/ha) | Plant response rating, Goosegrass (goosegrass; 31 g ai/ha) | Plant response rating, Goosegrass (goosegrass; 62 g ai/ha) | Plant response rating, Goosegrass (goosegrass; 125 g ai/ha) | Plant response rating, Goosegrass (goosegrass; 250 g ai/ha) | Plant response rating, Field Bindweed (field bindweed; 31 g ai/ha) | Plant response rating, Field Bindweed (field bindweed; 62 g ai/ha) | Plant response rating, Field Bindweed (field bindweed; 125 g ai/ha) | Plant response rating, Field Bindweed (field bindweed; 250 g ai/ha) | further results
1 | O=C1NCC(c2ccc(Cl)c(Cl)c2)C1C(=O)Nc1ccccc1F (racemic) [Compound 14] | 65 | 80 | 95 | 95 | 0 | 0 | 0 | 0 | 0 | 0 | 0 | 0 | 0 | 0 | 0 | 0 | 0 | 0 | 0 | 0 | Plant response rating, Crabgrass, Brazil (crabgrass, Brazil; 16 g ai/ha): 0; Plant response rating, Beggarticks (beggarticks; 16 g ai/ha): 0; Plant response rating, Ragweed (ragweed; 16 g ai/ha): 0; Plant response rating, Goosegrass (goosegrass; 16 g ai/ha): 0; Plant response rating, Morningglory (morningglory; 16 g ai/ha): 0; Plant response rating, Morningglory (morningglory; 31 g ai/ha): 0; Plant response rating, Morningglory (morningglory; 125 g ai/ha): 0; Plant response rating, Morningglory (morningglory; 250 g ai/ha): 0; Plant response rating, Field Bindweed (field bindweed; 16 g ai/ha): 0
2 | O=C1NCC(c2ccc(C(F)(F)F)cc2)C1C(=O)Nc1cccc(F)c1F (racemic) [Compound 202] | 80 | 98 | 98 | 98 | 0 | 0 | 35 | 80 | 20 | 80 | 85 | 90 | 35 | 70 | 90 | 98 | 60 | 40 | 50 | 70 | Plant response rating (deadnettle; Postemergence, 31 g ai/ha): 5; Plant response rating (deadnettle; Postemergence, 62 g ai/ha): 35; Plant response rating (deadnettle; Postemergence, 125 g ai/ha): 60; Plant response rating (deadnettle; Postemergence, 250 g ai/ha): 70; Plant response rating, Deadnettle (deadnettle; Preemergence, 62 g ai/ha): 65; Plant response rating, Deadnettle (deadnettle; Preemergence, 31 g ai/ha): 40; Plant response rating (deadnettle; Preemergence, 125 g ai/ha): 80; Plant response rating (deadnettle; Preemergence, 250 g ai/ha): 85; Plant response rating, Morningglory (morningglory; 31 g ai/ha): 0; Plant response rating, Morningglory (morningglory; 62 g ai/ha): 0; Plant response rating, Morningglory (morningglory; 125 g ai/ha): 0; Plant response rating, Morningglory (morningglory; 250 g ai/ha): 30
3 | O=C1NCC(c2ccc(OC(F)F)cc2)C1C(=O)Nc1cccc(F)c1F (racemic) [Compound 350] | 0 | 75 | 95 | 98 | 0 | 0 | 20 | 20 | 0 | 0 | 60 | 65 | 0 | 0 | 0 | 25 | 40 | 60 | 65 | 60 | Plant response rating, Morningglory (morningglory; 31 g ai/ha): 0; Plant response rating, Morningglory (morningglory; 62 g ai/ha): 0; Plant response rating, Morningglory (morningglory; 125 g ai/ha): 0; Plant response rating, Morningglory (morningglory; 250 g ai/ha): 0
4 | O=C1NCC(c2ccc(F)c(F)c2)C1C(=O)Nc1cccc(F)c1F (stereo not shown) [Compound 17, N-(2,3-difluorophenyl)-4-(3,4-difluorophenyl)-2-oxo-3-pyrrolidinecarboxamide] | 65 | 95 | 95 | 98 | – | – | – | – | 0 | 0 | 0 | 0 | 0 | 0 | 0 | 35 | 0 | 0 | 0 | 0 | Plant response rating, Crabgrass, Brazil (crabgrass, Brazil; 16 g ai/ha): 40; Plant response rating (deadnettle; Postemergence, 16 g ai/ha): 0; Plant response rating (deadnettle; Postemergence, 31 g ai/ha): 0; Plant response rating (deadnettle; Postemergence, 62 g ai/ha): 0; Plant response rating (deadnettle; Postemergence, 125 g ai/ha): 10; Plant response rating (deadnettle; Postemergence, 250 g ai/ha): 10; Plant response rating, Ragweed (ragweed; 16 g ai/ha): 0; Plant response rating, Goosegrass (goosegrass; 16 g ai/ha): 0; Plant response rating, Field Bindweed (field bindweed; 16 g ai/ha): 0
5 | O=C1NCC(c2ccc(C(F)(F)F)cc2)C1C(=O)Nc1cccc(F)c1F (stereo not shown) [Compound 80, N-(2,3-difluorophenyl)-2-oxo-4-[4-(trifluoromethyl)phenyl]-3-pyrrolidinecarboxamide] | – | – | 70 | 95 | 0 | 0 | 20 | 60 | 0 | 0 | 0 | 20 | 30 | 60 | 70 | 80 | 0 | 0 | 0 | 0 | Plant response rating, Beggarticks (beggarticks; 16 g ai/ha): 0; Plant response rating (deadnettle; Postemergence, 31 g ai/ha): 70; Plant response rating (deadnettle; Postemergence, 62 g ai/ha): 60; Plant response rating (deadnettle; Postemergence, 125 g ai/ha): 70; Plant response rating (deadnettle; Postemergence, 250 g ai/ha): 40; Plant response rating, Deadnettle (deadnettle; Preemergence, 62 g ai/ha): 0; Plant response rating, Deadnettle (deadnettle; Preemergence, 31 g ai/ha): 0; Plant response rating (deadnettle; Preemergence, 125 g ai/ha): 65; Plant response rating (deadnettle; Preemergence, 250 g ai/ha): 70; Plant response rating, Ragweed (ragweed; 16 g ai/ha): 0; Plant response rating, Goosegrass (goosegrass; 16 g ai/ha): 10; Plant response rating, Morningglory (morningglory; 16 g ai/ha): 0; Plant response rating, Morningglory (morningglory; 31 g ai/ha): 0; Plant response rating, Morningglory (morningglory; 62 g ai/ha): 0; Plant response rating, Morningglory (morningglory; 125 g ai/ha): 20; Plant response rating, Morningglory (morningglory; 250 g ai/ha): 40; Plant response rating, Field Bindweed (field bindweed; 16 g ai/ha): 0
